What was measured:
[1] = tested on: microbial flora in the target watershed (environmental microbes, resistant genes); conditions: logistic model fitting of S against concentration; target solution DNA
[2] = tested on: microbial flora in the target watershed; test: minimum inhibitory concentration (MIC) by EUCAST database and drug resistance prediction invalid concentration PNECr; conditions: PNECR=MIC/AF, AF 10
Source text: Minimum inhibitory concentration (MIC) of some antibiotics and drug resistance prediction invalid concentration (PNECr) of microbes

[3] = tested on: microbial flora in the target watershed; conditions: determined by EUCAST database; unit assumed; cited from earlier work
[4] = buffer; cited from earlier work

Molecule	MSC value (antibiotic concentration at S=0) [1] [µg/L]	PNECr [2]	Observed MIC [3] [µg/mL]	t1/2 [4] [days]
CN(C)[C@@H]1C(O)=C(C(N)=O)C(=O)[C@@]2(O)C(O)=C3C(=O)c4c(O)cccc4[C@@](C)(O)[C@H]3C[C@@H]12 [Tetracycline]	~11.39			
N[C@@H]1[C@H]2CN(c3nc4c(cc3F)c(=O)c(C(=O)O)cn4-c3ccc(F)cc3F)C[C@@H]12 [Travafloxacin]		0.8	8	
CC[C@H]1OC(=O)C[C@@H](O)[C@H](C)[C@@H](O[C@@H]2O[C@H](C)[C@@H](O[C@H]3C[C@@](C)(O)[C@@H](O)[C@H](C)O3)[C@H](N(C)C)[C@H]2O)[C@@H](CC=O)C[C@@H](C)C(=O)/C=C/C(C)=C/[C@@H]1CO[C@@H]1O[C@H](C)[C@@H](O)[C@@H](OC)[C@H]1OC [Tylosin]		200	2000	
Bacitracin		200	2000	
Capreomycin		100	1000	
Cefadroxil		12.5	125	
Cefalexin		25	250	
Chloramphenicol		12.5	125	
Colistin		6.4	64	
Dehydrated erythromycin				365
Ethambutol		100	1000	
FLORFENICOL		12.5	125	
Fosfomycin		12.5	125	
Fusiform acid		3.2	32	
Gentamicin		1.6	16	
Kanamycin		12.5	125	
Lincomycin		50	500	
Linezolid		12.5	125	
Lolakabiv		12.5	125	

Molecule	MSC value (antibiotic concentration at S=0) [1] [µg/L]	PNECr [2]	Observed MIC [3] [µg/mL]	t1/2 [4] [days]
Mikafenjin		0.4	4	
Nalidixic acid		50	500	
Narasin		12.5	125	
Neomycin		12.5	125	
Pefloxacin		400	4000	
Penicillin		0.4	4	
Quinupustine		0.4	4	
Sparfloxacin		50	500	
Spiramycin		200	2000	
Streptomycin		12.5	125	
Sulbactam sodium		25	250	
Sulfamethoxazole		100	1000	
Teicoplanin		100	1000	
Tiamulin		50	500	
Tilmicosin		25	250	
Vancomycin		12.5	125	
Viomycin		100	1000	
Virginiamycin		25	250	
